The subject of one series is Normal test subjects. To be noted: in vivo. The procedure:
Normal test subjects were loaded with 1.5% body weight of water under constantly maintained conditions, with urine being collected every 30 minutes, as described by J.H. Cort et al., Kidney International. 8:292, 1975, and then they were administered dDAVP intranasally, using a standard 0.1 mg/ml formulation obtained from Ferring AB of Malmo. A portion of the dDAVP was set aside, while Na-CMC was added to another portion to form a solution having a CMC:dDAVP weight ratio of 100:1.

Another series in a line: in vivo. To be noted: male, rat, sc, pH 4.
For series [1] the following is noted: in vivo, iv; cited from earlier work.

We go through one compound from patent EP0381345B1, “Aqueous liquid desmopressin-CMC pharmaceutical composition” (CORINT, LTD., priority 1989, dated 1990).

Marks after values point to notes of the source that are not given here.

Take `NC(=O)CC[C@@H]1NC(=O)[C@H](Cc2ccccc2)NC(=O)[C@H](Cc2ccc(O)cc2)NC(=O)CCSSC[C@@H](C(=O)N2CCC[C@H]2C(=O)N[C@H](CCCN=C(N)N)C(=O)NCC(N)=O)NC(=O)[C@H](CC(N)=O)NC1=O` [dDAVP, desmopressin]: the “Peak % Inhibition of Diuretic Urine Flow” value in the series with Normal test subjects was -76.7* %. Moreover, in the series “in vivo”, the concentration peaked (Cmax) at 0.027 ng/mL; the Tmax (in general, the time at which the peak concentration occurs) is 8.8 min; the half-life (as a rule, how long it takes for the measured level to halve) worked out at 20.5 min. Moreover, the “half-life (T1/2)” value in series [1] was 17 to 18 min.
